{"source": "patent US11442059B2", "about": "“Method for treating a chronic itch condition by administering small molecule MrgprX4 antagonists” (The Johns Hopkins University, priority 2017, dated 2022)", "key": {"human dendritic cells": {"test_system": "human dendritic cells", "assay": "Calcium imaging of human dendritic cells", "type": "cell-based", "method": "In initial experiments, HEK293 cells were plated on 100 μg/ml poly-D-lysine coated glass cover slips, and transiently transfected with vector containing Mrgprs gene, after 24-48 hours of culture, cells were loaded with Fura 2-acetomethoxy ester calcium indicator (0.5 μM, Molecular Probes) along with pluronic F-127 dispersing agent (0.1%, Molecular Probes) for 30 minutes in the dark at 37° C., then washed with calcium imaging buffer (CIB; NaCl 125 mM, KCl 3 mM, CaCl2 2.5 mM, MgCl2 0.6 mM, HEPES 10 mM, glucose 20 mM, NaHCO3 1.2 mM, sucrose 20 mM, brought to pH 7.4 with NaOH). Drugs were added to Fura 2-loaded cells and intracellular free calcium was measured using 340 nm and 380 nm excitation wavelengths with emission measured at 520 nm with a microscope based imaging system (Nikon Eclipse TE200). Changes in emission fluorescence ratios at 340/380 nm excitation were continuously monitored at 1 second intervals. Later, experiments were performed using Mrgpra1-GFP, Mrgprc11-GFP and MRGPRX4-GFP stable cell lines to confirm the findings obtained from the transiently expressing cells.\nHuman Peripheral Blood Dendritic Cells from four different donors were purchased from Lonza (cc-2701) and […] Technologies (70041). […]"}, "Mrgpra1 knockout mice": {"test_system": "Mrgpra1 knockout mice", "assay": "Dendritic cell adoptive transfer into Mrgpra1 KO mice with daily LTG", "type": "in vivo, mouse", "details": "Mrgpra1 KO animals who received WT dendritic cells; 7-10 days of LTG 50 mg kg−1", "method": "Spleens from naïve 129S1 WT mice or Mrgpra1−/− mice were aseptically removed and DCs were isolated using mouse Pan Dendritic Cell isolation kit (Miltenyi Biotec) according to the manufacturer's manual. Briefly, single cell suspensions from spleen were generated by collagenase D/DNase I digestion as above mentioned. Then, cocktail of biotin-conjugated antibodies against non-dendritic cells followed by anti-biotin magnetic microbeads were added to the cell suspensions. Dendritic cells were separated from bead labelled non-dendritic cells using LS column. Dendritic cells freshly isolated either from WT mice or KO animals suspended in 200 μl Hanks' Balanced Salt Solution (HBSS) were injected intravenously (tail vein) into the naïve male Mrgpra1 knockout mice (2×10^6 cells/mouse) one day before starting daily LTG (50 mg kg^−1 body weight) administration."}, "129S1/SvImJ mice": {"test_system": "129S1/SvImJ mice", "assay": "SJS/TEN mouse model (daily oral gavage of causative drug)", "type": "in vivo", "details": "for TUNEL-positive dead epithelial cells in paw: LTG oral daily", "method": "Eight-to-ten week old male mice were orally gavaged with either causative drugs (LTG, allopurinol, oxcarbazepine) suspended in saline or saline once daily. The dosage was based on milligrams per kilogram of animal's body weight as indicated (for example, LTG 50 mg kg^−1 body weight). Skin, eyes, and mucosa, survival, body weight, physical and gross appearances (particularly on the eyes, mucosa and skins) were monitored every day.\nThe animals were deeply anesthetized with pentobarbital and transcardially perfused with 20 ml 0.1 M cold PBS (pH 7.4) followed with 25 ml of cold 4% paraformaldehyde (PFA). Paw skin, eyelid, spleen, lymph nodes were dissected out. postfixed in 4% PFA for more than two hours, and cryoprotected in a 20% followed by 30% sucrose solution for 24 hours each at 4° C. Tissue samples were embedded in the optimal cutting temperature (OCT) and frozen before being serially cut into 20 μm sections and placed onto slides. Hematoxylin and eosin (H&E) staining was performed using standard procedures according to the manufacturer's instruction VITROVIEW™ H&E Stain Kit). To quantify amount of apoptotic cells, terminal deoxynucleotidyl transferase dUTP nick end labeling (TUNEL) assay, a method for detecting DNA fragmentation that results from apoptotic cells by labeling the terminal end of nucleic acids, was performed by following the protocol of Apo-BrdU DNA Fragmentation Assay Kit (Biovision). To estimate the total cell number in tissue, all nuclei were stained with propidium iodide. Digital photographs were captured under confocal fluorescent microscopy at x200 magnification (Zeiss LSM 700). The number of TUNEL-positive nuclei were counted and reported as a percentage over the number of total nuclei observed in the skin's epidermis layer."}, "Mrgprc11-GFP": {"target": "T1, Mrgprc11-GFP (Mus musculus, UniProt Q8CIP3)", "T1 construct": "expressed in transfected cells", "T1 sequence (Q8CIP3 1-322)": "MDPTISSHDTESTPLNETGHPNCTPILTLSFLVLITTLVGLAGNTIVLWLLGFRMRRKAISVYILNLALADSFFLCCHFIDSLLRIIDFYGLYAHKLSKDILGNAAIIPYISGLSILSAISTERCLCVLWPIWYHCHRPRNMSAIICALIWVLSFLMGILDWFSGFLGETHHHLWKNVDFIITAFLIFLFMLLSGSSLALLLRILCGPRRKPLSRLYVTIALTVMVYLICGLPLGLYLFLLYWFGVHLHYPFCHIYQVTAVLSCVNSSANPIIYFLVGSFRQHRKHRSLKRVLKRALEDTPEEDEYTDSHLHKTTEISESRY", "assay": "Receptor internalization assay, Mrgprc11-GFP HEK293 cells", "type": "cell-based", "details": "data not shown", "method": "To label the drug with red-fluorescent dye, […] of LTG was dissolved in 50 μl dimethyformamide (DMF) first, and further diluted with 450 μl reaction buffer (0.1M sodium bicarbonate buffer, pH9.0) to obtain LTG at a concentration of 7.8 mM. Then, 50 μl of Texas-red-conjugated sulfonyl chloride (Thermo Fisher Scientific, T1905) dissolved in DMF at 10 mg ml−1 was slowly added into LTG solution. The reaction was incubated at 4° C. for 1 hour with continuous stirring. The mixture was then diluted into cell culture medium for further use. LTG labeled with Texas Red dye can create bright red-fluorescence with excitation/emission maxima ˜595/615 nm. HEK293 cells stably expressing Mrgpra1-GFP, Mrgprc11-GFP or MRGPRX4-GFP fusion protein were grown in DMEM with 10% FBS. After 4-6 hours of serum starvation, cells were treated with either medium, dye alone, unlabeled LTG or Texas-Red-labeled LTG at 37° C. for 15 or 60 min. Cells were washed with PBS and fixed with 4% paraformaldehyde in PBS. The subcellular localization of Mrgpr-GFP or drug was visualized under a confocal fluorescence microscope with a 400× magnification (Zeiss LSM 700)."}}}
{"smiles": "Nc1nnc(-c2cccc(Cl)c2Cl)c(N)n1", "note": "[LTG, Lamotrigine]", "values": [{"measurement": "cells activated (Ca2+ imaging)", "setting": "human dendritic cells", "value": "about 5%"}, {"measurement": "animals developing SJS-like eye manifestation", "setting": "Mrgpra1 knockout mice", "value": 64, "unit": "%"}, {"measurement": "mortality rate", "setting": "129S1/SvImJ mice; LTG 50 mg kg−1 oral daily, by day 14, WT 129S1/SvImJ mice", "value": 60, "unit": "%"}, {"measurement": "TUNEL-positive dead epithelial cells in paw", "setting": "129S1/SvImJ mice; day 9, HET mice", "value": "45.99±1.84", "unit": "%"}, {"measurement": "TUNEL-positive dead epithelial cells in paw", "setting": "129S1/SvImJ mice; day 9, KO mice", "value": "6.10±1.63", "unit": "%"}, {"measurement": "TUNEL-positive dead epithelial cells in paw", "setting": "129S1/SvImJ mice; day 9, WT mice", "value": "48.74±5.94", "unit": "%"}, {"measurement": "survival", "setting": "129S1/SvImJ mice; day 14 of LTG treatment, KO group", "value": "no mouse died"}, {"measurement": "mice survived", "setting": "129S1/SvImJ mice; day 14 of LTG treatment, WT and HET groups", "value": 30, "unit": "%"}, {"measurement": "internalization of Mrgprc11-GFP", "setting": "Mrgprc11-GFP", "value": "did not induce the internalization"}]}
